We go through one molecule from US20220308068A1, “BIOMARKER IN OSTEOPOROSIS INTERVENTION THERAPY BY BONE PEPTIDE, SCREENING METHOD AND USE THEREOF” (Institute of Food Science and Technology, Chinese Academy …, priority 2019, published 2022).

For experiment [1], the system named is ovariectomized osteoporosis rat model. Description: H&E staining of right tibias. The experiment is classed as in vivo, SD rats. Particulars: right tibia, 12 weeks of intervention treatment. As for the experimental part:
1, the construction of ovariectomized rats models: SD rats are kept in a clean environment under a controlled room temperature at 25±2° C. and alternates 12/12 light and dark every day, and the SD rats feed freely. After one week adaptive feeding, randomly select 8 female rats, anesthetize them with 1% (v/v) pentobarbital sodium (40 mg/kg BW), and remove a little fat near ovaries. The remaining 40 rats are ovariectomized after being anesthetized with pentobarbital sodium. The recovery situation is observed in a 4-week recovery period, and their weight changes are detected. These are prepared by the applicant in advance. (any research about metabolic fingerprint changes of ovariectomized osteoporotic rats after intervention with bone peptide have not been reported according to the existing literature). 2, animal grouping and samples collection: the 8 female rats with a little fat near ovaries removed are selected as a sham-operated group, the ovariectomized 40 rats are randomly divided into 5 groups with 8 rats in each group, and are named by a negative control group, a positive control group, a low-concentration treatment group, a medium-concentration treatment group and a high-concentration treatment group. The rats are perfused by different solutions of bovine bone peptide (diluted by ultrapure water, and sterilized) with concentration of 100 mg/kg, 200 mg/kg, and 500 mg/kg according to the weights of the rats. The rats in the negative control group are perfused with equal volume of ultrapure sterile water (a perfusing volume is generally 1-2 mL/100 g BW), and the rats in the positive control group are perfused with 50 μg/kg of 17β-estradiol (ES). Observe weight changes of the rats and measure the weights every two weeks. After perfusing experiment, the rats are sacrificed in accordance with the animal welfare operating procedures, femurs and tibias on both sides are taken, and soft tissues such as muscle and fascia attached to bone tissues are removed. The right tibias are subjected to paraffin-embedded H&E staining treatment after fixing in a phosphate-formalin buffer for 24 hours for morphometric analysis of the tibias of the rats. Left femurs and right femurs is soaked with normal saline, washed repeatedly for 3 times, wrapped with medical gauzes (pre-soaked with normal saline) and tinfoil, and then stored in a −20° C. refrigerator for trabecular bone microstructure (micro-CT scanning) and mechanical strength tests of bone biomechanical indexes (three-point bending test). […]

The test system is the same in experiment [2]. Description: three-point bending test of left femurs. The class given is in vivo, SD rats. Particulars: left femur; treatment groups and ES group vs Model group. As for the experimental part: 1, the construction of ovariectomized rats models: SD rats are kept in a clean environment under a controlled room temperature at 25±2° C. and alternates 12/12 light and dark every day, and the SD rats feed freely. After one week adaptive feeding, randomly select 8 female rats, anesthetize them with 1% (v/v) pentobarbital sodium (40 mg/kg BW), and remove a little fat near ovaries. The remaining 40 rats are ovariectomized after being anesthetized with pentobarbital sodium. The recovery situation is observed in a 4-week recovery period, and their weight changes are detected. These are prepared by the applicant in advance. (any research about metabolic fingerprint changes of ovariectomized osteoporotic rats after intervention with bone peptide have not been reported according to the existing literature). 2, animal grouping and samples collection: the 8 female rats with a little fat near ovaries removed are selected as a sham-operated group, the ovariectomized 40 rats are randomly divided into 5 groups with 8 rats in each group, and are named by a negative control group, a positive control group, a low-concentration treatment group, a medium-concentration treatment group and a high-concentration treatment group. […]

As for `C[C@]12CC[C@@H]3c4ccc(O)cc4CC[C@H]3[C@@H]1CC[C@@H]2O` [ES, 17β-estradiol], in experiment [1], the trabecular bone area entry is “significantly increased”, the trabecular bone connection result is on record as “tighter”, the trabecular bone spacing entry is listed as “smaller” and the trabecular bone width result is listed as “wider”. In experiment [2], the “elastic load (Ed)” value is given as “on a rise trend” and the “fracture load (Fd)” value was “on a rise trend”.
